Measured values reported in patent US10611771B2, “Pyrazolo [3,4-d] pyrimidine derivative” (WEST CHINA HOSPITAL, SICHUAN UNIVERSITY, priority 2016, dated 2020).
“And” between values parts separate entries of the source, which are not always exact repeats. Identical values can stand only once.

System: A549 cells
Test: MTT detection method, inhibitory effect against A549 cells
Format: cell-based
Excerpt: MTT detection method was used, and MTT is a yellow compound and a dye accepting hydrogen ions, and can be used as the respiratory chain in mitochondria of viable cells. Under the action of succinate dehydrogenase and cytochrome C, the tetrazolium ring broke to form blue formanzan crystal, and the formation amount of formanzan crystal was only directly proportional to the viable counts. The formanzan crystal formed by reduction can dissolve in dimethyl sulfoxide (DMSO), and the optical density (OD) value can be determined at 490 nm using ELISA, to reflect the viable counts.
• Lung cancer cell lines: A549 and H1299. • Experimental materials: lung cancer cell lines, instruments and tools for cell culture, MTT, the compound mother liquid (10 mmol/L), and the positive control drug Src inhibitor pp1. 1. Specific Method • (3-1) Cell lines A549 and H1299 were recovered, and when the cells were in good conditions, namely cells grew to about 80% after one passage (i.e. the logarithmic growth phase), the cells were planked (96-well plate). • (3-2) Firstly, cells were collected, and the concentration of cell suspension was adjusted with counting chamber. Cells were seeded in 96-well plate at 1000˜10000 cells/well, and the detailed cell numbers in each well were dependent on the growth rate of different cells and the action time of drugs. A549 cells were seeded at 5000 cells, while H1299 cells were also seeded at 5000 cells, 200 μl for each well (100 μl cell suspension+100 μl drug dilution at different concentration gradient). The edge wells (36) were added 200 μl culture media (for prevention of edge effect). • (3-3) After planking and adding drugs, the plate was treated at 24 h, 48 h, and 72 h, and then for coloration, each well was added 200 μl culture media containing 20 μl MTT solution (5 mg/mL). The plate was continually cultured for 1˜4 hours, the incubation was stopped, and the culture supernatant fluid in each well was carefully absorbed. For suspension cells, the culture supernatant fluid in each well need be centrifuged before drawing. 150 μl DMSO was added to each well, and the plate was shaken on a shaking table for 15˜20 min, to allow the crystals to be completely dissolved. • (3-4) Colorimetry: The colorimetry was performed by ELISA, and the optical absorption value of each well was tested at a wavelength of 490 nm or 570 nm, and the result was recorded. • (3-5) Calculation Inhibition ratio=(the control−the drug)/the control×100% • IC50 (50% inhibitory concentration) can be calculated by spass software based on the inhibitory ratio at different concentration. II. Experimental Results • A549 cells were treated at 4 h, 24 h, 48 h, 72 h, and the drug dose was divided into the light concentration group (10 μm, 25 μm, 40 μm) and the high concentration group (50 μm, 80 μm, 100 μm), that were seeded at 6000 cells/well and 5000 cells/well, respectively, to carry out the experiment.

With `Cc1ccc(-c2nn(C(C)(C)C)c3ncnc(N)c23)cc1` [PP1, reference compound] as the compound, how does the “The inhibitory ratio (%) for three parallel assays” value (shortened to “The inhibitory ratio (%)”) (4 h, 10 μm) read?
Its value is 14.06% and 5.63% and 10.31%.

What about the “The mean inhibitory ratio (%)” value (4 h, 10 μm) of the same compound?
The value was 10.00%.

What about the “The mean inhibitory ratio (%)” value (4 h, 25 μm) of the same compound?
The value was 8.44%.

And the “The inhibitory ratio (%)” value (4 h, 40 μm)?
The value was 31.88% and 35.00% and 23.44%.

And the “The mean inhibitory ratio (%)” value (4 h, 40 μm)?
The value was 30.10%.

And the “The inhibitory ratio (%)” value (4 h, 50 μm)?
The value was 26.86% and 23.43% and 24.00%.

What about the “The mean inhibitory ratio (%)” value (4 h, 50 μm) of the same compound?
Its value is 24.76%.

What about the “The inhibitory ratio (%)” value (4 h, 80 μm) of the same compound?
Its value is 32.86% and 31.43% and 30.00%.

And the “The mean inhibitory ratio (%)” value (4 h, 80 μm)?
Its value is 31.43%.

And the “The inhibitory ratio (%)” value (4 h, 100 μm)?
The value was 44.00% and 43.43%.

And the “The mean inhibitory ratio (%)” value (4 h, 100 μm)?
Its value is 43.81%.

And the “The inhibitory ratio (%)” value (24 h, 10 μm)?
The value was 14.13% and 14.78% and 11.09%.

What about the “The mean inhibitory ratio (%)” value (24 h, 10 μm) of the same compound?
Its value is 13.33%.

What about the “The inhibitory ratio (%)” value (24 h, 25 μm) of the same compound?
The value was 49.35% and 47.39% and 48.04%.

And the “The mean inhibitory ratio (%)” value (24 h, 25 μm)?
The value was 48.26%.

And the “The inhibitory ratio (%)” value (24 h, 40 μm)?
The value was 63.91% and 64.13% and 64.35%.

And the “The mean inhibitory ratio (%)” value (24 h, 40 μm)?
The value was 64.13%.

What about the “The inhibitory ratio (%)” value (24 h, 50 μm) of the same compound?
The value was 56.46% and 55.83% and 56.04%.

What about the “The mean inhibitory ratio (%)” value (24 h, 50 μm) of the same compound?
Its value is 56.11%.

And the “The inhibitory ratio (%)” value (24 h, 80 μm)?
The value was 74.79% and 72.92% and 73.54%.

What about the “The mean inhibitory ratio (%)” value (24 h, 80 μm) of the same compound?
The value was 73.75%.

What about the “The inhibitory ratio (%)” value (24 h, 100 μm) of the same compound?
The value was 80.63% and 79.58% and 79.17%.

What about the “The mean inhibitory ratio (%)” value (24 h, 100 μm) of the same compound?
Its value is 79.79%.

What about the “The inhibitory ratio (%)” value (48 h, 10 μm) of the same compound?
The value was 48.91% and 48.44% and 45.94%.

What about the “The mean inhibitory ratio (%)” value (48 h, 10 μm) of the same compound?
Its value is 47.76%.

And the “The inhibitory ratio (%)” value (48 h, 25 μm)?
The value was 66.88% and 67.03% and 66.72%.

What about the “The mean inhibitory ratio (%)” value (48 h, 25 μm) of the same compound?
Its value is 66.88%.

And the “The inhibitory ratio (%)” value (48 h, 40 μm)?
Its value is 74.53% and 74.22%.

And the “The mean inhibitory ratio (%)” value (48 h, 40 μm)?
Its value is 74.43%.

And the “The inhibitory ratio (%)” value (48 h, 50 μm)?
Its value is 69.50% and 67.00% and 66.67%.

And the “The mean inhibitory ratio (%)” value (48 h, 50 μm)?
The value was 67.72%.

What about the “The inhibitory ratio (%)” value (48 h, 80 μm) of the same compound?
The value was 81.17% and 80.00% and 80.17%.

And the “The mean inhibitory ratio (%)” value (48 h, 80 μm)?
Its value is 80.44%.

And the “The inhibitory ratio (%)” value (48 h, 100 μm)?
Its value is 82.50% and 81.33% and 82.33%.

And the “The mean inhibitory ratio (%)” value (48 h, 100 μm)?
Its value is 82.06%.

What about the “The inhibitory ratio (%)” value (72 h, 10 μm) of the same compound?
The value was 63.42% and 63.87% and 64.59%.

What about the “The mean inhibitory ratio (%)” value (72 h, 10 μm) of the same compound?
The value was 63.96%.

And the “The inhibitory ratio (%)” value (72 h, 25 μm)?
The value was 83.06% and 82.97% and 83.69%.

What about the “The mean inhibitory ratio (%)” value (72 h, 25 μm) of the same compound?
Its value is 83.24%.

And the “The inhibitory ratio (%)” value (72 h, 40 μm)?
The value was 86.76% and 86.13% and 87.66%.

What about the “The mean inhibitory ratio (%)” value (72 h, 40 μm) of the same compound?
Its value is 86.85%.

And the “The inhibitory ratio (%)” value (72 h, 50 μm)?
The value was 82.70% and 81.35% and 82.43%.

What about the “The mean inhibitory ratio (%)” value (72 h, 50 μm) of the same compound?
Its value is 82.16%.

And the “The inhibitory ratio (%)” value (72 h, 80 μm)?
Its value is 85.95% and 86.22% and 86.08%.

And the “The mean inhibitory ratio (%)” value (72 h, 80 μm)?
Its value is 86.08%.

What about the “The inhibitory ratio (%)” value (72 h, 100 μm) of the same compound?
The value was 85.41% and 85.68%.

What about the “The mean inhibitory ratio (%)” value (72 h, 100 μm) of the same compound?
The value was 85.59%.
